Data reported in US8134015B2, “Compound inhibiting in vivo phosphorous transport and medicine containing the same” (Kyowa Hakko Kirin Co., Ltd., priority 2003, dated 2012).

Target: T1, rat NaPi-2b (Rattus norvegicus, UniProt Q9JJ09)
T1 construct: expressed in transfected cells; host or cells: Xenopus oocytes injected with cRNA
T1 sequence (Q9JJ09 1-695): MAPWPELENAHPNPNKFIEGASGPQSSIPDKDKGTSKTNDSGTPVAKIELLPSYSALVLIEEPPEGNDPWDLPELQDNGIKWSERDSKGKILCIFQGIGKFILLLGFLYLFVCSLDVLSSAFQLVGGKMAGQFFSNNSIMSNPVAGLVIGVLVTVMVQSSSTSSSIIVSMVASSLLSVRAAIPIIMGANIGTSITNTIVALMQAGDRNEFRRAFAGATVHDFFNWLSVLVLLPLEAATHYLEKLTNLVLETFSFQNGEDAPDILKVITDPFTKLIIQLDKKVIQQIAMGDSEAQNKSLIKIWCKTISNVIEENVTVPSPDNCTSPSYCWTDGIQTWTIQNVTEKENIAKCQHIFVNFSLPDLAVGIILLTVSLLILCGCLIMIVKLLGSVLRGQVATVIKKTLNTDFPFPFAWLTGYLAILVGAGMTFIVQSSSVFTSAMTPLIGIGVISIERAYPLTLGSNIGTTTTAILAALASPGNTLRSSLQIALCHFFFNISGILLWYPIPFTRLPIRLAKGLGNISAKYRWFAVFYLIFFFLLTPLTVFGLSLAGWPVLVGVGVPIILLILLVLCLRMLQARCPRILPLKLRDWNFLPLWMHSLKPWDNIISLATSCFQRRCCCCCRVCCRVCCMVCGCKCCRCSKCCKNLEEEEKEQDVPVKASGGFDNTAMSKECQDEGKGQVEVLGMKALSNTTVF
Assay: Sodium-dependent phosphate uptake of Xenopus oocytes which expressed NaPi-2b (32P)
Format: cell-based
Conditions: Xenopus oocytes expressing rat NaPi-2b, 32P radioactive phosphorus; read-out: IC50 (phosphate uptake inhibitory activity)
Description: Pharmacological Test Example 1
Experiment of Sodium-Dependent Phosphate Uptake of Xenopus oocytes which Expressed NaPi-2b
Degenerate primers were prepared from sequences of mouse NaPi-2b disclosed in Hilfiker H. et al., Pro Natl Acad Sci USA, 95 (24): 14564-14569, […] and sequences of human and rat NaPi-2a disclosed in Magagnin S. et al., Proc Natl Aca Sci USA, 90 (13): 5979-5983, 1993. RNA was extracted from the rat small intestine using ISOGEN; manufactured by NIPPON GENE CO., LTD (Japan). 400 bp gene fragments were obtained by PCR using, as a template, a cDNA library prepared with a cDNA synthesis kit (manufactured by STRATAGENE (US)). Thereafter, the above rat small intestine cDNA library was screened using the gene fragment as a probe, and the whole gene sequence of rat NaPi-2b was cloned. cRNA was synthesized from the cloned rat NaPi-2b cDNA with a cRNA synthesis kit (manufactured by Ambion (US)). The synthesized cRNA was injected into Xenopus oocytes (obtained from COPACETIC (Japan)) with a liquid microinjector (manufactured by Drummond (US)) and was cultured for 2 days to express rat NaPi-2b. Thereafter, for a group of derivatives, phosphate uptake inhibitory activity were measured using the Xenopus oocytes with ^32P radioactive phosphorus (manufactured by Daiichi Kagaku Inc. (Japan)). […] The inhibitory activity for 300 μM and 100 μM was determined from the same inhibition curve and expressed in percentage inhibition (%) in Table 5.

| IC50 [µM] | SMILES |
| --- | --- |
| 15 | COc1ccc(C(=O)Nc2ccccc2C(=O)N/N=C/c2ccc(OC(F)(F)F)cc2)cc1OC [Compound 33, 3,4-Dimethoxy-N-[2-(4-trifluoromethoxy-benzylidene-hydrazinocarbonyl)-phenyl]-benzamide] |
| 1.5 | COc1ccc(/C=N/NC(=O)c2ccccc2NC(=O)c2ccc(OC)c(OC)c2)cc1Br [Compound 34, N-[2-(3-Bromo-4-methoxy-benzylidene-hydrazinocarbonyl)-phenyl]-3,4-dimethoxy-benzamide] |
| 3.23 | COc1ccc(C(=O)Nc2ccccc2C(=O)N/N=C/c2cccc(Cl)c2)cc1OC [Compound 35, N-[2-(3-Chloro-benzylidene-hydrazinocarbonyl)-phenyl]-3,4-dimethoxy-benzamide] |
| 4.04 | COc1ccc(C(=O)Nc2ccccc2C(=O)N/N=C/c2cc(C)c(O)c(C)c2)cc1OC [Compound 36, N-[2-(4-Hydroxy-3,5-dimethyl-benzylidene-hydrazinocarbonyl)-phenyl]-3,4-dimethoxy-benzamide] |
| 13.5 | CCOc1cc(/C=N/NC(=O)c2ccccc2NC(=O)c2ccc(OC)c(OC)c2)ccc1O [Compound 37, N-[2-(3-Ethoxy-4-hydroxy-benzylidene-hydrazinocarbonyl)-phenyl]-3,4-dimethoxy-benzamide] |
| 2.43 | COc1ccc(C(=O)Nc2ccccc2C(=O)N/N=C/c2ccc(Cl)c(C(F)(F)F)c2)cc1OC [Compound 41, N-[2-(4-Chloro-3-trifluoromethyl-benzylidene-hydrazinocarbonyl)-phenyl]-3,4-dimethoxy-benzamide] |
| 8.21 | COc1ccc(C(=O)Nc2ccccc2C(=O)N/N=C/c2ccc(O)c(C)c2)cc1OC [Compound 42, N-[2-(4-Hydroxy-3-methyl-benzylidene-hydrazinocarbonyl)-phenyl]-3,4-dimethoxy-benzamide] |
| 20.7 | COc1ccc(C(=O)Nc2ccccc2C(=O)N/N=C/c2cc(C)ccc2C)cc1OC [Compound 43, N-[2-(2,5-Dimethyl-benzylidene-hydrazinocarbonyl)-phenyl]-3,4-dimethoxy-benzamide] |
| 4.71 | COc1ccc(C(=O)Nc2ccccc2C(=O)N/N=C/c2cc(C(F)(F)F)ccc2F)cc1OC [Compound 44, N-[2-(2-Fluoro-5-trifluoromethyl-benzylidene-hydrazinocarbonyl)-phenyl]-3,4-dimethoxy-benzamide] |
| 3.37 | COc1ccc(C(=O)Nc2ccccc2C(=O)N/N=C/c2cccc(C)c2)cc1 [Compound 49, 4-Methoxy-N-[2-(3-methyl-benzylidene-hydrazinocarbonyl)-phenyl]-benzamide] |
| 19.5 | COc1ccc(C(=O)Nc2ccccc2C(=O)N/N=C/c2cccc(O)c2)cc1 [Compound 50, N-[2-(3-Hydroxy-benzylidene-hydrazinocarbonyl)-phenyl]-4-methoxy-benzamide] |
| 10.4 | C=CCOc1ccc(/C=N/NC(=O)c2ccccc2NC(=O)c2ccc(OC)c(OC)c2)cc1 [Compound 52, N-[2-(4-Allyloxy-benzylidene-hydrazinocarbonyl)-phenyl]-3,4-dimethoxy-benzamide] |
| 4.05 | COc1cc(/C=N/NC(=O)c2ccccc2NC(=O)c2ccc(OC)c(OC)c2)cc(OC)c1 [Compound 53, N-[2-(3,5-Dimethoxy-benzylidene-hydrazinocarbonyl)-phenyl]-3,4-dimethoxy-benzamide] |
| 6.45 | COc1ccc(C(=O)Nc2ccccc2C(=O)N/N=C/c2cccc(Oc3cccc(C(F)(F)F)c3)c2)cc1OC [Compound 54, 3,4-Dimethoxy-N-{2-[3-(3-trifluoromethyl-phenoxy)-benzylidene-hydrazinocarbonyl]-phenyl}-benzamide] |
| 0.86 | COc1cc(OC)cc(C(=O)Nc2ccccc2C(=O)N/N=C/c2cccc(F)c2)c1 [Compound 55, N-[2-(3-Fluoro-benzylidene-hydrazinocarbonyl)-phenyl]-3,5-dimethoxy-benzamide] |
| 7.67 | COc1cc(OC)cc(C(=O)Nc2ccccc2C(=O)N/N=C/c2cccc(O)c2)c1 [Compound 58, N-[2-(3-Hydroxy-benzylidene-hydrazinocarbonyl)-phenyl]-3,5-dimethoxy-benzamide] |
| 1.22 | COc1ccc(C(=O)Nc2ccc(Br)cc2C(=O)N/N=C/c2cccc(Cl)c2)cc1OC [Compound 59, N-[4-Bromo-2-(3-chloro-benzylidene-hydrazinocarbonyl)-phenyl]-3,4-dimethoxy-benzamide] |
| 0.31 | COc1ccc(C(=O)Nc2ccc(Br)cc2C(=O)N/N=C/c2ccc(F)cc2)cc1OC [Compound 61, N-[4-Bromo-2-(4-fluoro-benzylidene-hydrazinocarbonyl)-phenyl]-3,4-dimethoxy-benzamide] |
| 5.97 | COc1ccc(C(=O)Nc2ccc(Br)cc2C(=O)N/N=C/c2cccc(O)c2)cc1OC [Compound 63, N-[4-Bromo-2-(3-hydroxy-benzylidene-hydrazinocarbonyl)-phenyl]-3,4-dimethoxy-benzamide] |

Continued, molecule first:

| SMILES | IC50 [µM] |
| --- | --- |
| O=C(Nc1ccccc1C(=O)N/N=C/c1ccc(F)cc1)c1ccccc1F [Compound 38, 2-Fluoro-N-[2-(4-fluoro-benzylidene-hydrazinocarbonyl)-phenyl]-benzamide] | 5.64 |
| O=C(Nc1ccccc1C(=O)N/N=C/c1cccc(O)c1)c1ccccc1F [Compound 39, 2-Fluoro-N-[2-(3-hydroxy-benzylidene-hydrazinocarbonyl)-phenyl]-benzamide] | 9.24 |
| Cc1ccc(/C=N/NC(=O)c2ccccc2NC(=O)c2ccccc2F)cc1 [Compound 40, 2-Fluoro-N-[2-(4-methyl-benzylidene-hydrazinocarbonyl)-phenyl]-benzamide] | 2.03 |
| Cc1cc(/C=N/NC(=O)c2ccccc2NC(=O)c2ccccc2F)ccc1O [Compound 45, 2-Fluoro-N-[2-(4-hydroxy-3-methyl-benzylidene-hydrazinocarbonyl)-phenyl]-benzamide] | 26.1 |
| Cc1ccc(C)c(/C=N/NC(=O)c2ccccc2NC(=O)c2ccccc2F)c1 [Compound 46, N-[2-(2,5-Dimethyl-benzylidene-hydrazinocarbonyl)-phenyl]-2-fluoro-benzamide] | 7.41 |
| COc1ccc(C(=O)Nc2ccccc2C(=O)N/N=C/c2cccc(F)c2)cc1 [Compound 47, N-[2-(3-Fluoro-benzylidene-hydrazinocarbonyl)-phenyl]-4-methoxy-benzamide] | 4.38 |
| COc1ccc(C(=O)Nc2ccccc2C(=O)N/N=C/c2ccc(F)cc2)cc1 [Compound 48, N-[2-(4-Fluoro-benzylidene-hydrazinocarbonyl)-phenyl]-4-methoxy-benzamide] | 2.07 |
| COc1ccc(C(=O)Nc2ccccc2C(=O)N/N=C/c2ccc(C)cc2)cc1 [Compound 51, 4-Methoxy-N-[2-(4-methyl-benzylidene-hydrazinocarbonyl)-phenyl]-benzamide] | 4.6 |
| COc1cc(OC)cc(C(=O)Nc2ccccc2C(=O)N/N=C/c2ccc(F)cc2)c1 [Compound 56, N-[2-(4-Fluoro-benzylidene-hydrazinocarbonyl)-phenyl]-3,5-dimethoxy-benzamide] | 0.89 |
| COc1cc(OC)cc(C(=O)Nc2ccccc2C(=O)N/N=C/c2ccc(C)cc2)c1 [Compound 57, 3,5-Dimethoxy-N-[2-(4-methyl-benzylidene-hydrazinocarbonyl)-phenyl]-benzamide] | 1.02 |
| COc1ccc(C(=O)Nc2ccc(Br)cc2C(=O)N/N=C/c2ccc(Cl)cc2)cc1OC [Compound 60, N-[4-Bromo-2-(4-chloro-benzylidene-hydrazinocarbonyl)-phenyl]-3,4-dimethoxy-benzamide] | 1.58 |
| COc1ccc(C(=O)Nc2ccc(Br)cc2C(=O)N/N=C/c2ccc(C)cc2)cc1OC [Compound 62, N-[4-Bromo-2-(4-methyl-benzylidene-hydrazinocarbonyl)-phenyl]-3,4-dimethoxy-benzamide] | 0.9 |
| COc1ccc(C(=O)Nc2ccc(Br)cc2C(=O)N/N=C/c2ccc(O)cc2)cc1OC [Compound 64, N-[4-Bromo-2-(4-hydroxy-benzylidene-hydrazinocarbonyl)-phenyl]-3,4-dimethoxy-benzamide] | 3.77 |
